Measurements: ChEMBL document CHEMBL5346971, “Discovery of the First Irreversible HDAC6 Isoform Selective Inhibitor with Potent Anti-Multiple Myeloma Activity” (J Med Chem, 2023)
pIC50: −log10 of the molar value. Activity calls are given as the source filed them. No cut-off for these calls is given here.

Legend:
[1] = target: Class 1 histone deacetylase (Homo sapiens) (UniProt Q13547+O15379+Q92769+Q9BY41); assay: Inhibition of class 1 HDAC in human A549 cells assessed as acetyl histone H4 level at 2 uM incubated for 5 hrs by western blot analysis relative to control; format: cell-based
[2] = target: T1, Protein deacetylase HDAC6 (Homo sapiens, UniProt Q9UBN7); assay: Inhibition of N-terminal GST-tagged human full length recombinant HDAC6 (1 to 1215 residues) expressed in Sf9 cells using Boc-Lys(acetyI)-AMC as substrate preincubated with enzyme for 1 hr followed by substrate addition and measured after 30 mins by fluorescence based analysis
T1 sequence (Q9UBN7 whole entry): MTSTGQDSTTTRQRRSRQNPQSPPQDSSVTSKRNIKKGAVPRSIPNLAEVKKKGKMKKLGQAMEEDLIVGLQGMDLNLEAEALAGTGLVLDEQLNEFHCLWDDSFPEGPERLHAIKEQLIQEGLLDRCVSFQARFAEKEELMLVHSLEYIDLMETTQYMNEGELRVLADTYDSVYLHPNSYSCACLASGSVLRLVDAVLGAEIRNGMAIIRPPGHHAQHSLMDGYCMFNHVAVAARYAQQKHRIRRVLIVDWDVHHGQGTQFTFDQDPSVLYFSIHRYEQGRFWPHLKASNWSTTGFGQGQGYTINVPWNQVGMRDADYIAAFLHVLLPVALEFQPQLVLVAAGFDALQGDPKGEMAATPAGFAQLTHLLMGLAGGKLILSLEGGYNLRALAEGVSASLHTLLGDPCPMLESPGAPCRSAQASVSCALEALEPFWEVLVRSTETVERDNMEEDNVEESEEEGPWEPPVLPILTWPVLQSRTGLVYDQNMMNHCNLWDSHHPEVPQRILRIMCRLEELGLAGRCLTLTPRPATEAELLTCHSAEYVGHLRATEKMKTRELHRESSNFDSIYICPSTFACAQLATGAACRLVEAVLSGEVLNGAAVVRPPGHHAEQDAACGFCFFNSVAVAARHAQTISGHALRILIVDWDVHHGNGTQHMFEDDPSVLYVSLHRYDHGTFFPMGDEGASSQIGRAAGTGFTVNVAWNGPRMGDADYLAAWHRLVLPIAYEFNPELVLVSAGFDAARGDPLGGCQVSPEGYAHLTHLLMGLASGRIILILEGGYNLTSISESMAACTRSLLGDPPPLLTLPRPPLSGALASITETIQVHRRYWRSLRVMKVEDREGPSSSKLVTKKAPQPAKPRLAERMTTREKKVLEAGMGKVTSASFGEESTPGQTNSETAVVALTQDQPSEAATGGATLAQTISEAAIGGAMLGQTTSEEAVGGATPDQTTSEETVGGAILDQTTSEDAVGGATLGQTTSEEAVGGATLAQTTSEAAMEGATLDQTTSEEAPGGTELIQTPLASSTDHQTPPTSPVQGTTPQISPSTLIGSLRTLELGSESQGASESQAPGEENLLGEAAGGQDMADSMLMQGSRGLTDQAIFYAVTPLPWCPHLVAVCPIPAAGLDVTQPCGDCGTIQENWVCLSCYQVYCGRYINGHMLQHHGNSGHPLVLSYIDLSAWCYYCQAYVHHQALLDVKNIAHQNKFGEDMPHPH

[3] = species: Homo sapiens; assay: Selectivity index, ratio of IC50 for inhibition of C-terminal FLAG-tagged human full length recombinant HDAC2 (1 to 488 residues) expressed in Sf9 cells to IC50 for inhibition of N-terminal GST-tagged human full length recombinant HDAC6 (1 to 1215 residues) expressed in Sf9 cells
[4] = target: T2, Protein deacetylase HDAC6 (Homo sapiens) (UniProt Q9UBN7); assay: Irreversible inhibition of HDAC6 in human A549 cells assessed as acetyl alpha-tubulin level at 0.4 uM incubated for 5 hrs followed by drug wash-out and measured immediately after drug wash-out by western blot analysis relative to control; format: cell-based
T2 sequence (whole entry): T1 sequence (Q9UBN7 whole entry)

[5] = target: T2, Protein deacetylase HDAC6 (Homo sapiens); assay: Irreversible inhibition of HDAC6 in human A549 cells assessed as acetyl alpha-tubulin level at 0.4 uM incubated for 5 hrs followed by drug wash-out for 1 hr by western blot analysis relative to control; format: cell-based
[6] = target: Histone deacetylase 3/Nuclear receptor corepressor 2 (HDAC3/NCoR2) (Homo sapiens, UniProt O15379); assay: Inhibition of C-terminal His-tagged human HDAC3 (1 to 428 residues)/N-terminal GST-tagged human NCOR2 (395 to 489 residues) expressed in baculovirus-infected Sf9 cells using Boc-Lys(acetyI)-AMC as substrate preincubated with enzyme for 1 hr followed by substrate addition and measured after 30 mins by fluorescence based analysis
[7] = system: RPMI-8226; assay: Antiproliferative activity against human RPMI-8226 cells assessed as inhibition of cell proliferation incubated for 48 hrs by CCK8 assay; format: functional, cell-based; conditions: RPMI-8226, 48 h
[8] = system: MM1.S; assay: Antiproliferative activity against human MM1.S cells assessed as inhibition of cell proliferation incubated for 48 hrs by CCK8 assay; format: functional, cell-based
[9] = Cytotoxicity against human L02 cells assessed as inhibition of cell proliferation incubated for 48 hrs by CCK8 assay; format: toxicity, cell-based
[10] = system: RPMI-8226; assay: Induction of apoptosis in human RPMI-8226 cells assessed as proportion of viable cells at 0.1 uM incubated for 24 hrs by AnnexinV-FITC/PI staining based flow cytometry (reference value: 84.71%); format: functional, cell-based
[11] = system: RPMI-8226; assay: Induction of apoptosis in human RPMI-8226 cells assessed as proportion of late apoptotic cells at 0.1 uM incubated for 24 hrs by AnnexinV-FITC/PI staining based flow cytometry (reference value: 4.18%); format: functional, cell-based
[12] = system: RPMI-8226; assay: Induction of cell cycle arrest in human RPMI-8226 cells assessed as proportion of cells at G2/M phase at 0.1 uM incubated for 24 hrs by PI staining based flow cytometry (reference value: 19.8%); format: functional

Sequence of Class 1 histone deacetylase (Homo sapiens) (O15379 whole entry, looked up, the tested form may be a part): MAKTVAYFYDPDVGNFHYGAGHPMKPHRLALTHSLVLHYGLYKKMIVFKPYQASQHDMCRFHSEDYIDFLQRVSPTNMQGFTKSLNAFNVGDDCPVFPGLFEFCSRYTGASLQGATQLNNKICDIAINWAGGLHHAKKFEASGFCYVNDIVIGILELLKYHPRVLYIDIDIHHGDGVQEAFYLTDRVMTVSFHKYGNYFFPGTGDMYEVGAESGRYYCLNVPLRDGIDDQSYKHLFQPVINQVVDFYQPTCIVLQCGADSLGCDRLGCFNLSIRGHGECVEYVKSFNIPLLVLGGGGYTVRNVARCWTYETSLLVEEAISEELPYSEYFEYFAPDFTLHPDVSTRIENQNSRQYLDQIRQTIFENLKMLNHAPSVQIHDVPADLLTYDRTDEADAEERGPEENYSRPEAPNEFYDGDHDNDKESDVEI
Sequence of Class 1 histone deacetylase (Homo sapiens) (Q13547 whole entry, looked up, the tested form may be a part): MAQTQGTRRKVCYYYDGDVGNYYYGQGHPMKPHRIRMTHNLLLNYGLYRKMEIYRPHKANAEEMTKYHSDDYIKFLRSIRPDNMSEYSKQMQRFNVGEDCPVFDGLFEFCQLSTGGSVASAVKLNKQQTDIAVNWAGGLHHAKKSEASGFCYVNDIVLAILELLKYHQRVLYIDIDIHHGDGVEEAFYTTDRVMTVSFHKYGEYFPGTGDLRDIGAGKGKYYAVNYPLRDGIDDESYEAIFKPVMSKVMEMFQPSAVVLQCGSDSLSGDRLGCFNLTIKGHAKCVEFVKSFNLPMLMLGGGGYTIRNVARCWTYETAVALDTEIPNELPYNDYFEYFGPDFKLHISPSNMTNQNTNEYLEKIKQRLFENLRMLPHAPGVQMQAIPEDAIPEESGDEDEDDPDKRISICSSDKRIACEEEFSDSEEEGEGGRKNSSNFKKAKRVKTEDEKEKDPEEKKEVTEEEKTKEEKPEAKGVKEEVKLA
Sequence of Class 1 histone deacetylase (Homo sapiens) (Q92769 whole entry, looked up, the tested form may be a part): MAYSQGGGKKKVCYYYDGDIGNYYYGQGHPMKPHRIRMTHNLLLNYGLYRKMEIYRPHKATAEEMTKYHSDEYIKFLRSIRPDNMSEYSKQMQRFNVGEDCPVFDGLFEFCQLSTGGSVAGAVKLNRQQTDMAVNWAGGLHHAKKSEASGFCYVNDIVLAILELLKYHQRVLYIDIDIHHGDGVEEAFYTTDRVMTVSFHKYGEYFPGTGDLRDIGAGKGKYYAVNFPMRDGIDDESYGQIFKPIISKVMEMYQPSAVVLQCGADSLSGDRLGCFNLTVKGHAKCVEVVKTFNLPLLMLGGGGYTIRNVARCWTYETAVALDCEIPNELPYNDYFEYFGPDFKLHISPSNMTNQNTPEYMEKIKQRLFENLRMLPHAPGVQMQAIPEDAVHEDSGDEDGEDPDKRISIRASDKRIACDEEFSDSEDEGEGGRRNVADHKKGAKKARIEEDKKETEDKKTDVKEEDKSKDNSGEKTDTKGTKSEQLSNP
Sequence of Class 1 histone deacetylase (Homo sapiens) (Q9BY41 whole entry, looked up, the tested form may be a part): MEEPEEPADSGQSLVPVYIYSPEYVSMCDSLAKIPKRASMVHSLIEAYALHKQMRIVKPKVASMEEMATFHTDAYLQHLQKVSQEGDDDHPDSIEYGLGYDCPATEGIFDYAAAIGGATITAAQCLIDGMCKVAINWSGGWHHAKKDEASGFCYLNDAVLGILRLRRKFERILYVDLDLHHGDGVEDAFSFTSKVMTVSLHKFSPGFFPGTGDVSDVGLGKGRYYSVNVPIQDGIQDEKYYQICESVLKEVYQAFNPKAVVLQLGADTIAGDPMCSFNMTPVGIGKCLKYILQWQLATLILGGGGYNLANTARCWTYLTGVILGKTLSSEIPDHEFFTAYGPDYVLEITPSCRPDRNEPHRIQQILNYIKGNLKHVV
Sequence of Histone deacetylase 3/Nuclear receptor corepressor 2 (HDAC3/NCoR2) (O15379 whole entry, the tested form may be a part): as the sequence (O15379 whole entry, looked up, the tested form may be a part) above
Sequence of Histone deacetylase 3/Nuclear receptor corepressor 2 (HDAC3/NCoR2) (Q9Y618 whole entry, further chain, the tested form may be a part): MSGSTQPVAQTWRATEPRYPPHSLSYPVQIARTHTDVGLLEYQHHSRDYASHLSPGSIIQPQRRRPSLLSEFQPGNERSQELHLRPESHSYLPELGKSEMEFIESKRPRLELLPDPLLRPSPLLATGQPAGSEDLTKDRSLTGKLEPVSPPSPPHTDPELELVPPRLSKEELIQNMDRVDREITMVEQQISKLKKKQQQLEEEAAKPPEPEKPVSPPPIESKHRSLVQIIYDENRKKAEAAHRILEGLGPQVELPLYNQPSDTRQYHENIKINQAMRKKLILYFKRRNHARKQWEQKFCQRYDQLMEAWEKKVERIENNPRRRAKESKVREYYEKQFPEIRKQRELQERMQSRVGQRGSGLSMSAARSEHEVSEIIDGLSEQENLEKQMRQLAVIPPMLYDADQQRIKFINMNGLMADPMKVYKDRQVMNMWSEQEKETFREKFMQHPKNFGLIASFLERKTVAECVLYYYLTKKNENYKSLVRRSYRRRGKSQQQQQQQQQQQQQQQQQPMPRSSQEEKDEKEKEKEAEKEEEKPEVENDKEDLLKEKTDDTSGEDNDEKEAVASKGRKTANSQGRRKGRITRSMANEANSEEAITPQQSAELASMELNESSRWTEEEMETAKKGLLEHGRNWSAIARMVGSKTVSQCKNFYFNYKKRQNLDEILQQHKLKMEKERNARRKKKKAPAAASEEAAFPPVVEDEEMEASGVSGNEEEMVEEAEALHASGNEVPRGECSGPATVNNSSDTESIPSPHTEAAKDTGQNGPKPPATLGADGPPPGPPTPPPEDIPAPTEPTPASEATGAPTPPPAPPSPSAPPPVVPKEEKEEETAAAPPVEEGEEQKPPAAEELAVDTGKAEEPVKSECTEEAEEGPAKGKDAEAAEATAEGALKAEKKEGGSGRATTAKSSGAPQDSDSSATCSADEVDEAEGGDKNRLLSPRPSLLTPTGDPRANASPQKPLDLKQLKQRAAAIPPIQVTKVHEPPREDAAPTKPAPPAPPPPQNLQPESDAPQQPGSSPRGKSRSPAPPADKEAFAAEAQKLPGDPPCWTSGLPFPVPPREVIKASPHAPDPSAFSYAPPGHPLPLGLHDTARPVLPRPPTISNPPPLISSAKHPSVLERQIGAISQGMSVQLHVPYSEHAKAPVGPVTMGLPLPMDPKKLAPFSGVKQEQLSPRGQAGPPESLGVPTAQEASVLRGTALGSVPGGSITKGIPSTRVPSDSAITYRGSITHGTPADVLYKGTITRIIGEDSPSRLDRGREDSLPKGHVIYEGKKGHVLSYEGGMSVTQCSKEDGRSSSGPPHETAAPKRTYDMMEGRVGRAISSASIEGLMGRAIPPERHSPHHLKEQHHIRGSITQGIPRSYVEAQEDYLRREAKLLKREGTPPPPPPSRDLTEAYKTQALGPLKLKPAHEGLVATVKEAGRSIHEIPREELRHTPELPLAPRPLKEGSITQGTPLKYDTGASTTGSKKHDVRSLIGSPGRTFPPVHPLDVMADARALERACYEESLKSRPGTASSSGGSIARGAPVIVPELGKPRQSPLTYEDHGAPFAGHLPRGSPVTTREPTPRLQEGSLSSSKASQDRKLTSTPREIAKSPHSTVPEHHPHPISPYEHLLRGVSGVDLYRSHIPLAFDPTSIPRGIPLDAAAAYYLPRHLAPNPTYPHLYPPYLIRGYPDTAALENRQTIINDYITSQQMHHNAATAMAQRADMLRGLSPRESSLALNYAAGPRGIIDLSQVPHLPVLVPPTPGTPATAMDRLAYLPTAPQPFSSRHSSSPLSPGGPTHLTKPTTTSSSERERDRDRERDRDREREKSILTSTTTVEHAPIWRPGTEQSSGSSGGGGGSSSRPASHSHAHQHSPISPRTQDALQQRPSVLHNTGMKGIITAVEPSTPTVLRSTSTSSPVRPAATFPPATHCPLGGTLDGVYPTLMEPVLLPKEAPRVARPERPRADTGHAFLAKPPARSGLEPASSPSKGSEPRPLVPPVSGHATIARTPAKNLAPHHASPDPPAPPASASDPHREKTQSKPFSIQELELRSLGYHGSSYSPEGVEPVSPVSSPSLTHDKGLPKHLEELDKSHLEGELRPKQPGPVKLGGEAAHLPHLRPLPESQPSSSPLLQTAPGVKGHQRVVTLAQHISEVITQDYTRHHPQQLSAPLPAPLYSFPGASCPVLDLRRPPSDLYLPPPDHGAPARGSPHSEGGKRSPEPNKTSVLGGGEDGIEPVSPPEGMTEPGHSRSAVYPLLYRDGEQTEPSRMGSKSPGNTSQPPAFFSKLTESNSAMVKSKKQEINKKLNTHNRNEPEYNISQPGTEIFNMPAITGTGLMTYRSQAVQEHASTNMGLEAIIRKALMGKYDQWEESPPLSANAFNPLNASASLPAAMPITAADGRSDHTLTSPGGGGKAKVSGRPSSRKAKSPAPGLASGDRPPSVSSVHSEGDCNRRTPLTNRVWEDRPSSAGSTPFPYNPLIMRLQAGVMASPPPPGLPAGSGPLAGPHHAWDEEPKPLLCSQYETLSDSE

fold change (FC) [1]: 1.6
pIC50 [2]: 7.48
fold change (FC) [4]: 5.2
fold change (FC) [5]: 5.3
pIC50 [6]: 5.09
pIC50 [7]: 6.77
pIC50 [8]: 6.38
Structure (SMILES): O=C(NO)c1ccc(COc2no[n+]([O-])c2S(=O)(=O)c2ccccc2)cc1
Ratio IC50 [3]: 45.5
IC50 at 48 h [9]: 8200 nM
Activity [10]: Active
Activity [11]: Active
Activity [12]: 21.4%
